Experimental data: US7632865B2, “Thioamides and salts thereof and cytokine production inhibitors containing both” (Ishihara Sangyo Kaisha, Ltd., priority 2004, dated 2009)

Row | SMILES | melting point
1 | O=[N+]([O-])c1ccc(Cl)c(C(=S)Nc2ccc(Sc3cc(C(F)(F)F)cc(Cl)n3)cc2)c1 [Compound No. 7, N-(4-(6-chloro-4-trifluoromethyl-2-pyridylthio)phenyl)-2-chloro-5-nitrothiobenzamide] | 183 to 186 °C
2 | O=[N+]([O-])c1ccc(Cl)c(C(=S)Nc2ccc(Oc3ncc(C(F)(F)F)cc3Cl)cc2)c1 [Compound No. 1, N-(4-(3-chloro-5-trifluoromethyl-2-pyridyloxy)phenyl)-2-chloro-5-nitrothiobenzamide] | 186 to 187 °C
3 | N#Cc1ccc(Cl)c(C(=S)Nc2ccc(Oc3ncc(C(F)(F)F)cc3Cl)c(-n3cccc3)c2)c1 [Compound No. 17, N-(4-(3-chloro-5-trifluoromethyl-2-pyridyloxy)-3-(1H-pyrrol-1-yl)phenyl)-2-chloro-5-cyanothiobenzamide] | 229 to 230 °C
4 | COc1cc(OC)nc(Oc2ccc(NC(=S)c3cc([N+](=O)[O-])ccc3Cl)cc2)n1 [Compound No. 19, N-(4-(4,6-dimethoxy-2-pyrimidinyloxy)phenyl)-2-chloro-5-nitrothiobenzamide] | 220 to 222 °C
5 | O=[N+]([O-])c1ccc(Cl)c(C(=S)NCCCOc2cc(C(F)(F)F)cc(N3CCSCC3)n2)c1 [Compound No. 4, N-(3-(6-thiomorpholino-4-trifluoromethyl-2-pyridyloxy)propyl)-2-chloro-5-nitrothiobenzamide] | 132 to 133 °C
6 | FC(F)(F)c1cnc(Oc2ccc(NC(=S)c3cnc(Cl)cc3Cl)cc2)c(Cl)c1 [Compound No. 13, N-(4-(3-chloro-5-trifluoromethyl-2-pyridyloxy)phenyl)-4,6-dichlorothionicotinamide] | 175 to 176 °C
7 | COc1cc(OC)nc(OCCCNC(=S)c2cc([N+](=O)[O-])ccc2Cl)n1 [Compound No. 18, N-(3-(4,6-dimethoxy-2-pyrimidinyloxy)propyl)-2-chloro-5-nitrothiobenzamide] | 119 to 120 °C
8 | O=[N+]([O-])c1ccc(Cl)c(C(=S)Nc2ccc(Sc3ncc(C(F)(F)F)cc3Cl)cc2)c1 [Compound No. 5, N-(4-(3-chloro-5-trifluoromethyl-2-pyridylthio)phenyl)-2-chloro-5-nitrothiobenzamide] | 72 to 73 °C

More lines, now with the values ahead:

Row | melting point | SMILES
9 | 193 °C | O=[N+]([O-])c1ccc(Cl)c(C(=S)Nc2ccc(Oc3ncc(C(F)(F)F)cc3Cl)cc2F)c1 [Compound No. 11, N-(4-(3-chloro-5-trifluoromethyl-2-pyridyloxy)-2-fluorophenyl)-2-chloro-5-nitrothiobenzamide]
10 | 199 to 200 °C | O=[N+]([O-])c1ccc(Cl)c(C(=S)Nc2ccc(Nc3ncc(C(F)(F)F)cc3Cl)cc2)c1 [Compound No. 6, N-(4-(3-chloro-5-trifluoromethyl-2-pyridylamino)phenyl)-2-chloro-5-nitrothiobenzamide]
11 | 146 to 147 °C | O=[N+]([O-])c1ccc(F)c(C(=S)Nc2ccc(Oc3ncc(C(F)(F)F)cc3Cl)cc2F)c1 [Compound No. 12, N-(4-(3-chloro-5-trifluoromethyl-2-pyridyloxy)-2-fluorophenyl)-2-fluoro-5-nitrothiobenzamide]
12 | 102 to 103 °C | CN(C)c1cc(C(F)(F)F)cc(OCCCNC(=S)c2cc([N+](=O)[O-])ccc2Cl)n1 [Compound No. 8, N-(3-(6-dimethylamino-4-trifluoromethyl-2-pyridyloxy)propyl)-2-chloro-5-nitrothiobenzamide]
13 | 186 to 187 °C | O=[N+]([O-])c1ccc(Cl)c(C(=S)Nc2ccc(Oc3cc(C(F)(F)F)cc(Cl)n3)cc2)c1 [Compound No. 2, N-(4-(6-chloro-4-trifluoromethyl-2-pyridyloxy)phenyl)-2-chloro-5-nitrothiobenzamide]
14 | 130 to 133 °C | CN(C)c1cc(C(F)(F)F)cc(OCCCNC(=S)c2cc([N+](=O)[O-])ccc2F)n1 [Compound No. 16, N-(3-(6-dimethylamino-4-trifluoromethyl-2-pyridyloxy)propyl)-2-fluoro-5-nitrothiobenzamide]
